Assay results as given in patent publication US6617118B2, “Monoclonal antibody for analysis and clearance of polyethylene glycol and polyethylene glycol-modified molecules” (priority 1999, dated 2003).

Tests used:
LS174T cells = test: Drug sensitivity of LS174T cells ([3H]-leucine incorporation); details: BHAMG plus 1 μg/well βG, 24 h
LS174T tumor xenografts = test: Therapy of LS174T tumor xenografts
Procedure: Therapy of LS174T Tumor Xenografts: Groups of 9 BALB/c nu/nu mice were s.c. injected on the right flank with 5×10^6 LS174T cells on day 1. […] 48 and 50 h later mice were i.v. injected with 2 sequential doses of 300 and 200 μg AGP3. […] Therapy was repeated starting on days 16, 26, and 41. All mice received 2-4 rounds of therapy. Tumor volumes (length×width×height×0.5) were measured twice a week and mice weight was followed as an estimate of treatment toxicity. […] Groups of 8 BALB/c nu/nu mice bearing larger 200-250 mm^3 tumors were also treated as above with 2 rounds of therapy starting on days 11 and 23.
Therapy was repeated starting on days 16, 26 and 41. […] Bars indicate the standard error of the mean. […] Soluble IgM immune complexes are primarily removed from the circulation and catabolized by the mononuclear phagocyte system in the liver, spleen and lungs by receptor-mediated binding of high mannose oligosaccharides exposed upon conformational changes in IgM induced by antigen binding (Day et al., 1980).

[1] = Toxicity of clearance and BHAMG prodrug administration; format: in vivo, BALB/c mice; details: AGP3 and 15 mg/kg BHAMG, no βG-sPEG
Procedure: Toxicity of Clearance: The numbers of WBC, RBC, and PLT in groups of 6 BALB/c mice were measured as described (Chen et al., 1997) 1 day before i.v. injection of 50 μg of βG-PEG or PBS. […] On day 8, the numbers of WBC, RBC, and PLT in […] samples were determined. On days 3 and 10, the spleen, liver and kidney were removed from one mouse in each group and fixed in 10% formalin. Ethanol dehydrated samples were embedded in paraffin and cut into 3 μm sections. Sections were then dewaxed with xylene, stained with hematoxylin/eosin, and dehydrated before observation under a light microscope. The weight of mice was followed for 18 days.
One concern of employing IgM to clear proteins is that the immune complexes could be deposited in organs and cause tissue damage. In addition, deposition of βG-PEG on the surface of cells could result in prodrug activation and tissue toxicity. […] Mice were injected with PBS (A-C) or βG-sPEG (D-F) on day 1. […] Tissue sections of liver (A, D), kidney (B, E), and spleen (C, F) recovered 10 days later were stained with hematoxylin and eosin. […] Similarly, no tissue damage was observed 3 days after prodrug administration (results not shown).
Groups of 4 mice were i.v. injected at time zero with PBS (control) or βG-sPEG. […] Six hours later, all mice were i.v. injected with BHAMG. […]

With `O=C(O)[C@H]1O[C@@H](Oc2ccc(N(CCCl)CCCl)cc2)[C@H](O)[C@@H](O)[C@@H]1O` [BHAMG] the “cytotoxic effect with simultaneous addition of βG” value (LS174T cells) was “cytotoxic effect equal to pHAM alone”, the Weight loss % (LS174T tumor xenografts; Round of therapy 1) was 1.7% and the Weight loss % (LS174T tumor xenografts; Round of therapy 2) was 4.0%. The Weight loss % (LS174T tumor xenografts; Round of therapy 3) was 1.7% and the “weight of mice, control group” value [1] was “only a small transient decrease”.
